This note sets out measurements from US12329828B2, “Pyrimidine nucleoside compounds for fluorescence imaging and spectroscopy” (San Diego State University Foundation, priority 2020, dated 2025).

Several values for one entry are separate records, joined by “and”; a condition that tells them apart may be missing. Equal entries are not always repeated. Marks after values point to notes of the source that are not given here.

Holding throughout (assay type): physicochemical
Series [1] is described as follows: Steady-state photophysical measurements of ABN in single-stranded and duplex DNA oligonucleotides. The source says:
Next, we measured the fluorescence of ABN in single-stranded and duplex DNA oligonucleotides to determine how base pairing and stacking influence its photophysical properties (Table 2). ABN increases its fluorescence to Φem=0.50-0.53 in matched duplex DNA oligonucleotides when base paired with A and Φem=0.55 when the analogue is present in the hairpin loop of ODN1. The quantum yield is less, 0.40 and 0.29, in ODN1:ODN3 and ODN4:ODN6 respectively, in which ABN is base paired with G. In ODN7:ODN9 Φem,=0.55, slightly greater than when base paired with A. In all of these single-stranded and duplex sequences, ABN is brighter than any other known FBA when present in oligonucleotides.
(§1) Quantum yields measurements. Experiments were measured in a quartz sub-micro cuvette (10 mm path length) purchased from Starnacell Inc. Steady state emission scans were recorded using a PTI QuantaMaster QM-400 and absorbances were measured on a Shimadzu UV-1700 Pharmaspec spectrometer. Quantum yield measurements were performed the comparative method of Williams et. al. and measured in duplicate, at minimum. Coumarin 153 in ethanol was used as a reference standard for all photophysical measurements. All measurements were taken with an absorbance range of 0.01-0.1. Subsequent dilutions were performed stepwise in order to obtain a minimum of six absorbance and emission spectra for quantum yield determinations.

Assay in series [2]: as above
The following applies: 1×PBS buffer (pH 7.4), different concentrations.

Series [3] can be described thus: Two-photon single-molecule characterization (fluorescence correlation spectroscopy). The source says: Single-molecule fluorescence measurements. Given the very attractive bulk-level photophysical properties of ABN in solution, we next investigated its potential as a single-molecule probe. […] In a later study, the base analogue DMA^thaU was detected as a free nucleoside at the single-molecule level for the first time via multiphoton excitation with a brightness of […] per molecule following three-photon excitation (see Phys. Chem. Chem. Phys. 2018, 20 (45), 28487; and J. Phys. Chem. Lett. 2019, 10 (17), 5008). […] The 2P brightness was measured using fluorescence correlation spectroscopy (FCS) and found to match that of DMA^thaU at 7 kHz per molecule (FIG. 3B).
Sample preparation for 2P method. All experiments were done with a solution of approximately 100 nM of ABN in TRIS buffer (20 mM TRIS base) at a pH of 7.5. The molecules were initially dissolved in DMSO (at a concentration of 100 μM) and subsequently diluted in buffer. The TRIS buffer was prepared with ultrapure water (Direct Q3, Merck Millipore), TRIS-base (20 mM, Trizma base, BioUltra, Sigma-Aldrich) and 150 mM NaCl (analytical reagent grade, Fluka). The pH was adjusted to 7.5 with a HCl solution (Sigma-Aldrich). Prior to sample preparation, the buffer was filtered with activated charcoal (Darco, Fluca) and through a 0.2 μm filter (Milex, Merck).
Two photon microscope. The two-photon microscope is a homebuilt pulse-shaper assisted setup with a ultra-broadband Ti:Sa laser as light source, recently described (R. S. Fisher, et al., Phys. Chem. Chem. Phys., 20, 28487 (2018)). The excitation source was a broadband Ti: Sapphire laser with a repetition rate of 80 MHz and a spectrum centered on 800 nm with a FWHM of 135 nm (Vitara UBB, Coherent). […] Sample fluorescence was collected by the same objective and transmitted through a dichroic mirror (Chroma 675dcspxr) and a short pass filter (Semrock FF01-650/SP), split by a polarising beamsplitter cube and detected by two avalanche photodiodes (MPD PDM 50c and 1MPD $PD-050-CTB). The signal was subsequently detected by a hardware correlator (ALV-7002, ALV GmbH).

The nature of series [4]: Steady-state absorption and fluorescence of the ABN nucleoside in solvents.
Excerpt: Photophysical properties. Steady-state measurements. […] Owing to the conjugated push-pull system in the design of ABN, the absorption and emission wavelengths are the longest known for a FBA designed to be capable of Watson-Crick hydrogen bonding. Recorded emission spectra in water using excitation wavelengths ranging from 310-500 nm are nearly superposable, as are excitation spectra recorded for emission wavelengths spanning 500-650 nm. These observations support the predominance of a single tautomeric form in dilute, aqueous solution.
as §1

Series [5] in a line: One-photon single-molecule total internal reflection fluorescence (smTIRF) microscopy. The source says:
The red-shifted absorption profile, high 2P brightness and predominance of the bright state made ABN a promising candidate for single-molecule detection via 1P excitation. […] Furthermore, these fluorescent puncta underwent single-step photobleaching under constant irradiation (FIG. 4B), consistent with the idea that ABN has suitable optical properties to be used as a single-molecule fluorescent nucleoside. By quantifying >2000 individual trajectories, we were able to determine the mean total detected photon value of 5300±1800 photons per molecule; furthermore, a mean of 1500±600 photons were detected per 100 ms integration from each molecule at a power density of 0.2 kW cm^−2.
Sample and slide preparation for IP method. ABN (10 mM, DMSO) was diluted into filtered (0.2 μm syringe filter, Whatman, 6780-1302) PBS (pH 7.4) to a working concentration of 100 nM. Borosilicate glass coverslips (VWR Int, 22×22 mm) were cleaned for 1 hour using an argon plasma (PDC-002, Harrick Plasma). Frame-Seal slide chambers (9×9 mm^2, Biorad, Hercules, CA) were affixed to the glass and the slides washed three times with filtered PBS (3×50 μL). The working solution of ABN (100 nM, 50 μL) was added to the slide and left for 3-minutes allowing for some of the ABN molecules to adsorb to the plasma-cleaned glass surface. […]
Single-molecule imaging. Single-molecule fluorescence imaging of ABN was performed on a bespoke total internal reflection fluorescence microscope using a 488 nm continuous wavelength diode laser (iBeamSMART, Toptica, 200.46 Wcm^−2). […] Fluorescence emission was collected by the same objective lens and separated from excitation light using a dichroic mirror (Di01-R405/488/561/635, Semrock) and passed through appropriate emission filters (BLP01-488R-25, FF01-520/44-25, Semrock). The fluorescence was then expanded (1.5×) and focused onto an electron-multiplying charge-coupled device (EMCCD, Evolve 512 Delta, Photometrics) with an electron multiplication gain of 250 ADU/photon operating in frame transfer mode. […]
Data analysis. A custom ImageJ macro was used to determine the total number of photons detected from single ABN emitters. The frames from single-molecule movies were summed and the pixel of peak intensity from each molecule was determined using the inbuilt ‘Find Maxima’ function (prominence threshold=20,000). The single emitters were selected from a 6×6 region surrounding the pixel of peak intensity and the total integrated intensity of the region was measured. […] The intensity per ABN emitter was converted from counts to photons detected by dividing the integrated signal above background by the total gain of the EMCCD (35.7 ADU/photon).

Series [6] in a line: Melting temperatures of ABN-containing oligonucleotides (temperature-dependent circular dichroism). The following applies: for Tm: ABN-containing hairpin or duplex. From the text: Temperature-dependent circular dichroism measurements of all six duplexes are consistent with the B-DNA conformation with only minimal perturbation (Table 2). Except in the ODN1 hairpin, where ABN is expected to be mostly solvent exposed, the melting temperatures of the duplexes are typically somewhat depressed as compared with their natural counterparts. Duplex stability is lowest when ABN has 5′-G and 3′-C neighbors, an observation consistent with other tricyclic FBAs, especially those that are electron-rich. The observed melting temperatures provide little indication of whether ABN is a better T- or C-surrogate.
In general terms: Circular dichroism is widely used to follow secondary structure.

Setting [7] is: ABN in DNA oligonucleotide, 1×PBS buffer (pH 7.4).
The mark [8] stands for this setting: Tm of ABN-containing duplex − Tm of corresponding duplex with canonical thymidine in place of ABN.

For the compound “ODN7: 10-mer CGC AGX CTC G (SEQ ID NO: 3), X = ABN (ABN nucleoside, as printed in the source, key not given here)”, in series [1] (setting [7]), the Φem was 0.62 and the “λem, max” value came to 532 nm. The “concentration dependence of absorption spectra” value in series [2] is reported as “concentration dependent”.

In the case of `CCN(CC)c1ccc2cc3cc([C@H]4C[C@@H](O)[C@@H](CO)O4)c(=O)nc-3[nH]c2c1` [ABN, 8-(diethylamino)-3-((2R,4R,5R)-4-hydroxy-5-(hydroxymethyl)tetrahydrofuran-2-yl)benzo[b][1,8]naphthyridin-2(10H)-one], the “bright/dark state by controlled dilution” value in series [3] (FCS, controlled dilution) was “exclusively in a bright state”. Further, in series [3] (FCS, two-photon excitation, 100 nM in TRIS buffer, excitation power 11 mW), the “2P brightness (average count rate per molecule)” value was 7 kHz per molecule and 7±0.5 kHz per molecule. In series [3] (single-molecule fluorescence measurements), the “fraction of compound in a bright state” value is over 95%. Moreover, the Φem in series [1] (in matched duplex DNA oligonucleotides, base paired with A) is reported as 0.50-0.53; in series [4] (1,4-dioxane, emission 474 nm) it was 0.64; in series [4] (1 × PBS pH 7.4) it was 0.39; in series [4] (H2O, emission 540 nm), 0.39. Moreover, the “λem, max” value in series [4] was found to be 540 nm; in series [4] (1,4-dioxane), 474 nm; in series [4] (H2O), 540 nm. In addition, the figures for the ε · Φem (brightness) in series [4] (1,4-dioxane) and in series [4] (H2O) were 19000 M⁻¹ cm⁻¹ and 7800 M⁻¹ cm⁻¹, respectively. Besides, the “λex, max” value in series [4] (1,4-dioxane) is 420 nm; in series [4] (1 × PBS pH 7.4), 442 nm; in series [4] (H2O) it was 442 nm. Moreover, the “red shift of absorption relative to closest competitors on brightness (pA, coumarin nucleoside)” value in series [4] (aqueous solution) is “more than 50 nm”. Moreover, the “red shift of emission relative to closest competitors on brightness (pA, coumarin nucleoside)” value in series [4] (aqueous solution) is listed as over 80 nm. This compound also showed a mean total on-time in series [5] (0.2 kW cm^−2) of 0.35 ± 0.18 s. Also, in series [5] (488 nm, 0.2 kW cm^−2, 100 ms integration), the “mean number of photons detected per frame per single molecule” value is given as 1500±600 photons/100 ms. Further, in series [5] (488 nm, 0.2 kW cm^−2, log-normal fit, N=2402 molecules), the “mean total number of photons detected per single molecule” value was determined as 5300±1800 photons. Also, the “brightness following 1P excitation” value in series [5] (one-photon excitation) was found to be 15 kHz per molecule.

What is called Tm is the temperature at which the thermal transition is half complete. What is called ΔTm is the change in melting temperature against a reference sample. For the compound “ODN1: hairpin GCT TAG CAG GXT AGT GCT AAG C (SEQ ID NO: 1), X = ABN in loop (GCT TAG CAG GXTAGT GCT AAG C; ABN abasic-like nucleoside in loop, as printed in the source, key not given here)”, the Tm in series [6] was found to be 63.6 ± 0.6 °C. Also, in series [6] (setting [8]), the ΔTm entry is “+3.1 °C”. In series [1] (setting [7]), the Φem is recorded as 0.55; the “λabs, max” value amounted to 450 nm; the “λem, max” value worked out at 530 nm.

For the compound “ODN4: 10-mer CGC AAX ATC G (SEQ ID NO: 2), X = ABN (ABN nucleoside, as printed in the source, key not given here)”, in series [1] (setting [7]), the Φem is given as 0.49; the “λabs, max” value is given as 452 nm; the “λem, max” value was found to be 540 nm.

“ODN1:ODN2: duplex of ODN1 with ODN2 (HairpinA, SEQ ID NO: 4); ABN base paired with A (chain 1 GCTTAGCAGGNTAGTGCTAAGC; chain 2 GCTTAGCACTAACCTGCTAAGC; ABN nucleoside, chemistry not fully specified)”: the Tm in series [6] was 61.8 ± 0.4 °C. Besides, the ΔTm in series [6] (setting [8]) is −4.7 °C. Besides, in series [1] (setting [7]), the Φem stood at 0.53; the “λabs, max” value is 440 nm; the “λem, max” value was found to be 530 nm.

As for “ODN1:ODN3: duplex of ODN1 with ODN3 (HairpinG, SEQ ID NO: 5); ABN base paired with G (chain 1 GCTTAGCAGGNTAGTGCTAAGC; chain 2 GCTTAGCACTAGCCTGCTAAGC; ABN nucleoside, chemistry not fully specified)”, the Tm in series [6] was 61.3 ± 0.6 °C. The ΔTm entry in series [6] (comparison with Tm of the corresponding natural duplex with a C:G base pair) is recorded as “+1.6^c ° C”. In series [1] (setting [7]), the Φem is given as 0.40; the “λabs, max” value was determined as 468 nm; the “λem, max” value amounted to 523 nm.
